Experimental data taken from ChEMBL document CHEMBL4145653, “Biosynthetic Baeyer-Villiger Chemistry Enables Access to Two Anthracene Scaffolds from a Single Gene Cluster in Deep-Sea-Derived Streptomyces olivaceus SCSIO T05” (J Nat Prod, 2018).

What was measured:
Alpha-2-macroglobulin = biological target: T1, Alpha-2-macroglobulin (Homo sapiens, UniProt P01023); assay: Inhibition of alpha-2 macroglobulin (unknown origin)
T1 sequence (P01023 whole entry): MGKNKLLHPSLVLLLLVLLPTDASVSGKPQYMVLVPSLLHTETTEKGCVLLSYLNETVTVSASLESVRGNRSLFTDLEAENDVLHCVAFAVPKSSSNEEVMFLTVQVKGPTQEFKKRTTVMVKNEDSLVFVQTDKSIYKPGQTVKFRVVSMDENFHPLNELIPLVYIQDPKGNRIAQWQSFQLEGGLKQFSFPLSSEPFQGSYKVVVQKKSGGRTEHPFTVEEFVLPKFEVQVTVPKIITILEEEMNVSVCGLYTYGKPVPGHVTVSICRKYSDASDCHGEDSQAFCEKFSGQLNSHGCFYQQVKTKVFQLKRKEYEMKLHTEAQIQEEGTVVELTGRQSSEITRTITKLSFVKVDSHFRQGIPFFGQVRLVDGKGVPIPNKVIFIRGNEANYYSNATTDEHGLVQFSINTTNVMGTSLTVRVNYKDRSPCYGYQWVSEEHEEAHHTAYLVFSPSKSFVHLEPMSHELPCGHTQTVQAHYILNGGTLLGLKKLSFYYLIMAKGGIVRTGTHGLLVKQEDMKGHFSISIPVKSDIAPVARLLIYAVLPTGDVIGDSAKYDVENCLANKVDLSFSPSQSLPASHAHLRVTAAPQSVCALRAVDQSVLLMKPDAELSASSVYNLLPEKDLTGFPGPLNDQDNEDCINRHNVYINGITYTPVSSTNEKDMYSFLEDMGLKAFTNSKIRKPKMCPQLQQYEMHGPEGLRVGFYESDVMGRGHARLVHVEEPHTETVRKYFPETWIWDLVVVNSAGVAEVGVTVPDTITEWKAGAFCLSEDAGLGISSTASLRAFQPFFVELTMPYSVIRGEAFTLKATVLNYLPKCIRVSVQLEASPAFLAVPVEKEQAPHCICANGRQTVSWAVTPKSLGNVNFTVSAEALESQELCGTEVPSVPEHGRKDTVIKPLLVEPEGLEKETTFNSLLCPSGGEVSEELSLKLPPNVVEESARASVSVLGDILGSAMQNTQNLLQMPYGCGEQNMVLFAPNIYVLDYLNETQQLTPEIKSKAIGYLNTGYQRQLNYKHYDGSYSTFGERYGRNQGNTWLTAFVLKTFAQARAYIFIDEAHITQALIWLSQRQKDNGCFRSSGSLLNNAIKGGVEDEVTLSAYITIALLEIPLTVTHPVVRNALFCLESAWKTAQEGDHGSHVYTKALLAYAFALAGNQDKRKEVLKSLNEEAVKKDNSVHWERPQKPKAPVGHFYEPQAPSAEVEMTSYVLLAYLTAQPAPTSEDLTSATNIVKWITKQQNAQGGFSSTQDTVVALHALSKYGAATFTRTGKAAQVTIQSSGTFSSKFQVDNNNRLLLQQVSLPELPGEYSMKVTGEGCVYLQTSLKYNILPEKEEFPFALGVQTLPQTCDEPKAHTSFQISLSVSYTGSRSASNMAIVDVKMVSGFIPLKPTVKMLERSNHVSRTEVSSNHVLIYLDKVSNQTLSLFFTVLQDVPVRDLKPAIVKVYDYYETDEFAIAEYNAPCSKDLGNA

[1] = Inhibition of glutathione S-transferase (unknown origin); design: species or system Homo sapiens

SMILES	IC50 (Alpha-2-macroglobulin) [µM]	IC50 [1] [µM]
CC(C)CC[C@@]1(O)c2cc3c(O)cccc3cc2C(=O)[C@H](C)[C@]1(O)C(=O)O	94	26.9
CC(C)CC[C@]1(O)[C@@]2(O)C(=O)O[C@]13C(=Cc1cccc(O)c1[C@@H]3O)C(=O)[C@@H]2C	257	–
